{"source": "paper PMC3914206", "key": {"panel of 442 kinases [1]": {"biological_target": "T1, panel of 442 kinases (Homo sapiens, UniProt Q8TDX7)", "T1 construct": "purchased KINOMEscan", "T1 sequence (Q8TDX7 whole entry)": "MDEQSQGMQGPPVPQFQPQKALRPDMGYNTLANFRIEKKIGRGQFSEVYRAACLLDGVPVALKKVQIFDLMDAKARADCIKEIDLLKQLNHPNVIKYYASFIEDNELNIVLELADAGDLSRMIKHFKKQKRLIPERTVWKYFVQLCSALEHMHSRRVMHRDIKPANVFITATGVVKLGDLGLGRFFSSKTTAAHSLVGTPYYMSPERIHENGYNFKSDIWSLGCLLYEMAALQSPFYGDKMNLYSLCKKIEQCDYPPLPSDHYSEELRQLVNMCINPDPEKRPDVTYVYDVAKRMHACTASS", "format": "binding", "conditions": "Compound Concentration 10 µM", "description": "(§1) We assessed the selectivity of members of this scaffold using the KINOMEscan methodology across a near comprehensive panel of 442 kinases [[18,27]]."}, "panel of 442 kinases [2]": {"biological_target": "T2, panel of 442 kinases (Homo sapiens, UniProt Q15746)", "T2 construct": "purchased KINOMEscan", "T2 sequence (Q15746 whole entry)": "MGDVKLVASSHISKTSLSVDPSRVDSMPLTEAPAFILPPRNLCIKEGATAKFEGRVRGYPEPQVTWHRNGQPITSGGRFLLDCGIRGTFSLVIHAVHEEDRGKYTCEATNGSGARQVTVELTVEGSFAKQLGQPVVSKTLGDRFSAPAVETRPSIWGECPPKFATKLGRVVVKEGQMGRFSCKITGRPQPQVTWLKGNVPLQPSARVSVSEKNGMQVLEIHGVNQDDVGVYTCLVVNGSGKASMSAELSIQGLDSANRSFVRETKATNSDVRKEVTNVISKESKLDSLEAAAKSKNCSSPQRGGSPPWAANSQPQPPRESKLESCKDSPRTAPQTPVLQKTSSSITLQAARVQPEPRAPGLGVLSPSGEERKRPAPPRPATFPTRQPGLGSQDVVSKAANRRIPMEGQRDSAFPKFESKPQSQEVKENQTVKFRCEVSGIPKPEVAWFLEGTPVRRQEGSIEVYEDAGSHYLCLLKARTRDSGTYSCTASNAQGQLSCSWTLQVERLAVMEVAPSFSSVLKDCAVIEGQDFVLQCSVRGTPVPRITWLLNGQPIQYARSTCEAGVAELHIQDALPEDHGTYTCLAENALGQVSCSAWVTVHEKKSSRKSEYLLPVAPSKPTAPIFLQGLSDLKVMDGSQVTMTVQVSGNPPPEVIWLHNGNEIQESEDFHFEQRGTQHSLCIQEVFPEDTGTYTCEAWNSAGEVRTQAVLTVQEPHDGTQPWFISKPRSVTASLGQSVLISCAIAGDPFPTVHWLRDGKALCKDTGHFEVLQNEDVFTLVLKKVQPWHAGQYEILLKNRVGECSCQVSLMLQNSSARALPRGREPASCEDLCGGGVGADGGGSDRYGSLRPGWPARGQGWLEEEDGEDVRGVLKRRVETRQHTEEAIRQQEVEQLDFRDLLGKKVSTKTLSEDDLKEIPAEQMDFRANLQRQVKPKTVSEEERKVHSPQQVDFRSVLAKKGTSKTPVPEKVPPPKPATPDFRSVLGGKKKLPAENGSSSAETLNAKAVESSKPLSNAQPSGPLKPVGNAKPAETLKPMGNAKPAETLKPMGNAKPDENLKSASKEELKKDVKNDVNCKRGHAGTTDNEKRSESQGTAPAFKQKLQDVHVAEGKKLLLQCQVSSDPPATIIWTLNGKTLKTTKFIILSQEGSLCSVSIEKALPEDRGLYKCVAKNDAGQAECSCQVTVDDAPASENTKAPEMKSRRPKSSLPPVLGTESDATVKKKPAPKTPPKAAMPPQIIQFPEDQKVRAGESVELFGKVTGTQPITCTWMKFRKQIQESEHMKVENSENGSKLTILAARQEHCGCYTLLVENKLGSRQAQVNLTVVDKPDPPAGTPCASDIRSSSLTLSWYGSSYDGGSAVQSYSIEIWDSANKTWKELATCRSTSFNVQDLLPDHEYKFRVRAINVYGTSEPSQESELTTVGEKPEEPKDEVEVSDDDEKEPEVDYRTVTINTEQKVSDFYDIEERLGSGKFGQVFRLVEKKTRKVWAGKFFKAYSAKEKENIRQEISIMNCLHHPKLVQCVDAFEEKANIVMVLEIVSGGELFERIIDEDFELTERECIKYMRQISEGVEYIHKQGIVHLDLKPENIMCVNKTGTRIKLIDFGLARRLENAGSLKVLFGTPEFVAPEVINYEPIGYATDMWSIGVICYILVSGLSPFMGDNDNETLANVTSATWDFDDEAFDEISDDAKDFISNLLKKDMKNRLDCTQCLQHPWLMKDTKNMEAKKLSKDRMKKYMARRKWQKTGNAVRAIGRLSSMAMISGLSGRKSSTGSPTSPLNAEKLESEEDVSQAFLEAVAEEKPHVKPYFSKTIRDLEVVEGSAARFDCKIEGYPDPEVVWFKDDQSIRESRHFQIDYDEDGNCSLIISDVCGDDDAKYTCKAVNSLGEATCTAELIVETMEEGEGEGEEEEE", "format": "binding", "conditions": "Compound Concentration 10 µM", "description": "as §1"}}, "data": [{"smiles": "CCOc1cc(C(=O)N2CCC(N3CCN(C)CC3)CC2)ccc1Nc1ncc2c(n1)N(C1CCCC1)c1ccccc1C(=O)N2C", "note": "[Compound 26]", "values": [{"measurement": "KINOMEscan: NEK7", "setting": "panel of 442 kinases [1]", "result": 100}, {"measurement": "KINOMEscan: MYLK", "setting": "panel of 442 kinases [2]", "result": 98}]}, {"smiles": "COc1cc(C(=O)N2CCC(N3CCN(C)CC3)CC2)ccc1Nc1ncc2c(n1)N(C1CCCC1)c1ccccc1C(=O)N2C", "note": "[Compound 25, 11-cyclopentyl-2-((2-methoxy-4-(4-(4-methylpiperazin-1-yl)piperidine-1-carbonyl)phenyl)amino)-5-methyl-5H-benzo[e]pyrimido[5,4-b][1,4]diazepin-6(11H)-one]", "values": [{"measurement": "KINOMEscan: NEK7", "setting": "panel of 442 kinases [1]", "result": 100}, {"measurement": "KINOMEscan: MYLK", "setting": "panel of 442 kinases [2]", "result": 73}]}, {"smiles": "COc1cc(C(=O)N2CCC(N3CCN(C)CC3)CC2)ccc1Nc1ncc2c(n1)N1CCc3cccc(c31)C(=O)N2C", "note": "[Compound 24]", "values": [{"measurement": "KINOMEscan: MYLK", "setting": "panel of 442 kinases [2]", "result": 2.9}]}, {"smiles": "COc1cc(C(=O)N2CCC(N3CCN(C)CC3)CC2)ccc1Nc1ncc2c(n1)N(C)c1ccccc1C(=O)N2C", "note": "[15 (LRRK2-IN-1)]", "values": [{"measurement": "KINOMEscan: NEK7", "setting": "panel of 442 kinases [1]", "result": 100}, {"measurement": "KINOMEscan: MYLK", "setting": "panel of 442 kinases [2]", "result": 8.7}]}]}
